Where “and” joins values, the source holds several entries; their conditions need not be identical. Equal values may be shown once.
Key:
[1] = Pilot dose finding studies (oral); conditions: in vivo
[2] = test system: cultured human mast cells (CHMC); assay: CHMC low cell density ionomycin activation: tryptase assay; assay type: cell-based
Jurkat cells = assay: Jurkat toxicity, Cell Titer Glo assay; assay type: cell-based; conditions: 18 hours incubation
Protocol: Seed 50 μl cells (1×10^6/ml) into each well containing 50 μl compound. […] Shake plates for 1 minute to mix cells and compound. Incubate plates at 37° C. […] Next day, harvest 50 μl cells from each well, add to 50 μl Cell Titer Glo reagent ([…]). Shake plates for 1 minute. Read on luminometer.

basophil cells = assay: Basophil ionomycin activation: histamine release assay; assay type: cell-based, human; conditions: Basophils
Protocol: The basophil activation assay was carried out using whole human peripheral blood from donors allergic to dust mites with the majority of the red blood cells removed by dextran sedimentation. Human peripheral blood was mixed 1:1 with 3% dextran T500 and RBCs were allowed to settle for 20-25 min. The upper fraction was diluted with 3 volumes of D-PBS and cells were spun down for 10 min at 1500 rpm, RT. Supernatant was aspirated and cells were washed in an equal volume MT-buffer. Finally, cells were resuspended in MT-buffer containing 0.5% DMSO in the original blood volume. 80 uL cells were mixed with 20 uL compound in the presence of 0.5% DMSO, in triplicate, in a V-bottom 96-well tissue culture plate. A dose range of 8 compound concentrations was tested resulting in a 10-point dose response curve including maximum (stimulated) and minimum (unstimulated) response. […] The cells were stimulated for 30 minutes at 37° C., 5% CO2. The plate was spun for 10 min at 1500 rpm at room temperature and 80 uL the supernatant was harvested for histamine content analysis using the histamine ELISA kit supplied by Immunotech. The ELISA was performed according to supplier's instructions.
Assays for ionomycin-induced basophil cell degranulation were carried out as described for the Basophil IgE or Dustmite Activation Assay (Section 6.4.6, supra), with the exception that following incubation with compound, cells were stimulated with 20 μl of 2 μM ionomycin.

[3] = in vitro chromosomal aberration assay
[4] = Sheep model of allergic asthma (Ascaris suum challenge); assay type: in vivo; conditions: aqueous suspension; for LAR and AHR (in words) / AHR (% inhibition) / EAR (% inhibition) / LAR (% inhibition): 45 mg/sheep; for LAR and AHR (in words): 60 minutes prior to allergen challenge; for AHR (% inhibition) / EAR (% inhibition) / LAR (% inhibition): pretreatment 60 min
Protocol: Sheep develop bronchoconstriction within minutes of exposure to inhaled antigen (Ascaris suum), with maximal airflow obstruction during the early allergic response (EAR). Release of preformed mast cell mediators is likely responsible for this early phase of airflow obstruction. […] In the sheep, AHR develops a few hours following antigen challenge, and can persist for up to 2 weeks.
In the sheep model of allergic asthma, sheep are administered aerosols of test article via an endotracheal tube, followed by an aerosol challenge with antigen extracted from the roundworm, Ascaris suum, to which the sheep are naturally allergic. Allergen challenge leads to direct bronchoconstriction (both EAR and LAR) and a persistent non-specific AHR. These three characteristics are similar to those seen in human allergic asthmatics. The activity of the test agent is determined by changes in the lung resistance (RL), which is calculated from measurements of transpulmonary pressure, flow, and respiratory volume. […] The LAR is a less pronounced increase in RL, which starts approximately 5-6 hours following allergen challenge and is resolved by 8 hours post-challenge. Twenty-four hours after the challenge, a dose response to carbachol is measured to determine the AHR, which is expressed as the dose of carbachol required to increase RL by 400% over baseline. (This measurement is referred to as the provocative concentration of carbachol that elicits a 400% increase in RL over baseline (PC400). The data are compared to historical control data for the same individual when administered a saline control aerosol and challenged with Ascaris suum.

Syk kinase = Syk kinase (Homo sapiens (Human), UniProt P43405); assay: Isolated Syk kinase: phosphorylation of a peptide substrate or endogenous substrate (LAT)
[5] = test system: cultured human mast cells (CHMC); assay: CHMC high cell density IgE activation: hexos (hexosaminidase) release; assay type: cell-based; conditions: anti-IgE activation
Procedure, shortened: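 IgE-sensitized CHMC at 1-2×10^6 cells/ml were pretreated with compound for 1 h at 37 °C (0.5% DMSO final), then anti-IgE-stimulated for 1 h and supernatant collected. Hexosaminidase was read with a fluorogenic substrate. Pellets were re-incubated 7 h with compound before supernatant ELISAs.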

[6] = test system: cultured human mast cells (CHMC); assay: CHMC high cell density IgE activation: tryptase; assay type: cell-based; conditions: anti-IgE activation
Procedure, shortened: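 IgE-sensitized CHMC at 1-2×10^6 cells/ml in MT buffer were pretreated with compound for 1 h at 37 °C (0.5% DMSO final), then stimulated with anti-IgE for 1 h. Tryptase was measured in 1:500-diluted supernatant. Pellets were re-incubated for 7 h with compound in CM media, and supernatants were assayed by ELISA.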

[7] = increasing concentrations, FIG. 8

## CNC(=O)COc1cccc(Nc2ncc(F)c(Nc3ccc4c(c3)NCCO4)n2)c1 [R921219, N4-(1,4-Benzoxazin-6-yl)-5-fluoro-N2-[3-(N-methylamino)carbonylmethyleneoxyphenyl]-2,4-pyrimidinediamine]
[1]
  multiple (7-day) doses not tolerated: ≥ 200 mg/kg/day
[2]
  IC50: > 10 µM
Jurkat cells
  IC50: > 10 µM
Basophil cells
  IC50: > 10 µM
[3]
  clastogenic potential: not found to possess clastogenic potential
[4]
  LAR and AHR (in words): blocked
  AHR (% inhibition): 90%
  EAR (% inhibition): 54% and 56%
  LAR (% inhibition): 75%
  EAR (in words): greatly reduced
Syk kinase; FIG. 9
  mode of inhibition of Syk kinase: ATP competitive
Syk kinase; [7]
  Syk kinase phosphorylation of a peptide substrate: dose responsive inhibition
  Syk kinase phosphorylation of an endogenous substrate (LAT): dose responsive inhibition

## CNC(=O)COc1cccc(Nc2ncc(F)c(Nc3cccc(O)c3)n2)c1 [R926508, 5-Fluoro-N4-(3-hydroxyphenyl)-N2-[3-(N-methylamino)carbonylmethyleneoxyphenyl]-2,4-pyrimidinediamine]
[2]
  IC50: > 10 µM
Jurkat cells
  IC50: > 10 µM
Basophil cells
  IC50: > 10 µM
[5]
  IC50: 0.17 µM
[4]
  LAR and AHR (in words): blocked
  AHR (% inhibition): 88%
  EAR (% inhibition): 21%
  LAR (% inhibition): 90%
  EAR (in words): greatly reduced
[6]
  IC50: 0.434 µM

From patent US9499493B2, “2,4-pyrimidinediamine compounds and their uses” (Rigel Pharmaceuticals, Inc., priority 2002, dated 2016)
